Patent publication US20250145633A1, “SUBSTITUTED FURANOPYRIMIDINE COMPOUNDS AS PDE1 INHIBITORS” (Dart NeuroScience, LLC, priority 2017, published 2025)

Molecular target: human PDE1B enzyme (Homo sapiens (Human), UniProt Q01064)
Experiment: IMAP TR-FRET PDE1B enzymatic assay
Type: biochemical
Settings: negative log of half-maximal molar inhibitory concentration, 200 nM FAM-cAMP, values given as bins; for IC50: read-out: PDE1b (pIC50) (converted)
How it was run: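 Full-length GST-tagged human PDE1B (250 pg/well) in IMAP BSA buffer with 10 U/ml calmodulin and 2.5 mM CaCl2; compound pre-incubated 5 min at room temperature, then 200 nM (final) FAM-cAMP for 30 min. IMAP binding reagent/Tb added, 1 h; TR-FRET 520/490 ratio read. IC50 from sigmoidal dose-response fit.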

SMILES	IC50	PDE1b (pIC50)
Cc1oc2ncnc(NC3(C)CC3)c2c1C(=O)N1CCc2cccc(OCF)c2C1 [Example 766, 5-[8-(Fluoromethoxy)-1,2,3,4-tetrahydroisoquinoline-2-carbonyl]-6-methyl-N-(1-methylcyclopropyl)furo[2,3-d]pyrimidin-4-amine]	10 to 100 nM	–
Cc1oc2ncnc(NC3(C)CC3)c2c1C(=O)N1CCc2ccc(OCF)cc2C1 [Example 767, 5-[7-(Fluoromethoxy)-1,2,3,4-tetrahydroisoquinoline-2-carbonyl]-6-methyl-N-(1-methylcyclopropyl)furo[2,3-d]pyrimidin-4-amine]	10 to 100 nM	–
Cc1oc2ncnc(NC3(C)CC3)c2c1C(=O)N1CCc2ncc(OCF)cc2C1 [Example 768, 5-[3-(Fluoromethoxy)-5,6,7,8-tetrahydro-1,6-naphthyridine-6-carbonyl]-6-methyl-N-(1-methylcyclopropyl)furo[2,3-d]pyrimidin-4-amine]	10 to 100 nM	–
Cc1oc2ncnc(NC3(C)CC3)c2c1C(=O)N1CCc2c(ccnc2OCF)C1 [Example 769, 5-[5-(Fluoromethoxy)-1,2,3,4-tetrahydro-2,6-naphthyridine-2-carbonyl]-6-methyl-N-(1-methylcyclopropyl)furo[2,3-d]pyrimidin-4-amine]	10 to 100 nM	–
Cc1oc2ncnc(NC3(C)CC3)c2c1C(=O)N1CCC(c2ncc(OCF)cn2)CC1 [Example 770, 5-{4-[5-(Fluoromethoxy)pyrimidin-2-yl]piperidine-1-carbonyl}-6-methyl-N-(1-methylcyclopropyl)furo[2,3-d]pyrimidin-4-amine]	10 to 100 nM	–
Cc1oc2ncnc(NC3(C)CC3)c2c1C(=O)N1CCC(c2ccc(OCF)cc2)C1 (stereo not drawn) [Example 771, 5-{3-[4-(Fluoromethoxy)phenyl]pyrrolidine-1-carbonyl}-6-methyl-N-(1-methylcyclopropyl)furo[2,3-d]pyrimidin-4-amine]	10 to 100 nM	–
Cc1oc2ncnc(NC3(C)CC3)c2c1C(=O)N1CCc2ccc(OCF)cc2C1C (stereo not drawn) [Example 772, 5-[7-(Fluoromethoxy)-1-methyl-1,2,3,4-tetrahydroisoquinoline-2-carbonyl]-6-methyl-N-(1-methylcyclopropyl)furo[2,3-d]pyrimidin-4-amine]	–	>8
COCc1nc2c(c(OCF)n1)CCN(C(=O)c1c(C)oc3ncnc(NC4(C)CC4)c13)C2 [Example 773, 5-[4-(Fluoromethoxy)-2-(methoxymethyl)-5H,6H,7H,8H-pyrido[3,4-d]pyrimidine-7-carbonyl]-6-methyl-N-(1-methylcyclopropyl)furo[2,3-d]pyrimidin-4-amine]	10 to 100 nM	–
Cc1oc2ncnc(NC3(C)CC3)c2c1C(=O)N1CC=C(c2ncc(F)cn2)C1 [Example 774, 5-[3-(5-Fluoropyrimidin-2-yl)-2,5-dihydro-1H-pyrrole-1-carbonyl]-6-methyl-N-(1-methylcyclopropyl)furo[2,3-d]pyrimidin-4-amine]	10 to 100 nM	–
Cc1oc2ncnc(NC3(C)CC3)c2c1C(=O)N1CC=C(c2nccc(C#N)n2)CC1 [Example 775, 2-(1-{6-Methyl-4-[(1-methylcyclopropyl)amino]furo[2,3-d]pyrimidine-5-carbonyl}-1,2,3,6-tetrahydropyridin-4-yl)pyrimidine-4-carbonitrile]	–	>8
Cc1oc2ncnc(NC3(C)CC3)c2c1C(=O)N1CCC(c2ccn(C)n2)CC1 [Example 776, 6-Methyl-5-[4-(1-methyl-1H-pyrazol-3-yl)piperidine-1-carbonyl]-N-(1-methylcyclopropyl)furo[2,3-d]pyrimidin-4-amine]	–	>8
Cc1oc2ncnc(NC3(C)CC3)c2c1C(=O)N1CCC(c2ncn(C)n2)CC1 [Example 777, 6-Methyl-5-[4-(1-methyl-1H-1,2,4-triazol-3-yl)piperidine-1-carbonyl]-N-(1-methylcyclopropyl)furo[2,3-d]pyrimidin-4-amine]	10 to 100 nM	–
Cc1oc2ncnc(NC3(C)CC3)c2c1C(=O)N1CCC(c2cn(C)nn2)CC1 [Example 778, 6-Methyl-5-[4-(1-methyl-1H-1,2,3-triazol-4-yl)piperidine-1-carbonyl]-N-(1-methylcyclopropyl)furo[2,3-d]pyrimidin-4-amine]	10 to 100 nM	–
Cc1oc2ncnc(NC3(C)CC3)c2c1C(=O)N1CCC(c2cc(C)n(C)n2)CC1 [Example 779, 5-[4-(1,5-Dimethyl-1H-pyrazol-3-yl)piperidine-1-carbonyl]-6-methyl-N-(1-methylcyclopropyl)furo[2,3-d]pyrimidin-4-amine]	–	>8
Cc1nc(C)c(C2CCN(C(=O)c3c(C)oc4ncnc(NC5(C)CC5)c34)CC2)[nH]1 [Example 780, 5-[4-(2,4-Dimethyl-1H-imidazol-5-yl)piperidine-1-carbonyl]-6-methyl-N-(1-methylcyclopropyl)furo[2,3-d]pyrimidin-4-amine]	100 to 1000 nM	–
Cc1oc2ncnc(NC3(C)CC3)c2c1C(=O)N1CCC(c2ccn(C(C)C)n2)CC1 [Example 781, 6-Methyl-N-(1-methylcyclopropyl)-5-{4-[1-(propan-2-yl)-1H-pyrazol-3-yl]piperidine-1-carbonyl}furo[2,3-d]pyrimidin-4-amine]	10 to 100 nM	–
Cc1oc2ncnc(NC3(C)CC3)c2c1C(=O)N1CCC(c2cnn(C)c2)CC1 [Example 782, 6-Methyl-5-[4-(1-methyl-1H-pyrazol-4-yl)piperidine-1-carbonyl]-N-(1-methylcyclopropyl)furo[2,3-d]pyrimidin-4-amine]	10 to 100 nM	–
Cc1oc2ncnc(NC3(C)CC3)c2c1C(=O)N1CC=C(c2cnc(F)s2)CC1 [Example 783, 5-[4-(2-Fluoro-1,3-thiazol-5-yl)-1,2,3,6-tetrahydropyridine-1-carbonyl]-6-methyl-N-(1-methylcyclopropyl)furo[2,3-d]pyrimidin-4-amine]	–	>8
COc1cnc(C2=CCN(C(=O)c3c(C)oc4ncnc(NC5(C)CC5)c34)CC2)cn1 [Example 784, 5-[4-(5-Methoxypyrazin-2-yl)-1,2,3,6-tetrahydropyridine-1-carbonyl]-6-methyl-N-(1-methylcyclopropyl)furo[2,3-d]pyrimidin-4-amine]	–	>8
COc1ccc(C2=CCN(C(=O)c3c(C)oc4ncnc(NC5(C)CC5)c34)CC2)nc1 [Example 785, 5-[4-(5-Methoxypyridin-2-yl)-1,2,3,6-tetrahydropyridine-1-carbonyl]-6-methyl-N-(1-methylcyclopropyl)furo[2,3-d]pyrimidin-4-amine]	–	>8
Cc1oc2ncnc(NC3(C)CC3)c2c1C(=O)N1CCc2c(ncnc2N2CC[C@H](F)C2)C1 [Example 786, 5-{4-[(3S)-3-Fluoropyrrolidin-1-yl]-5H,6H,7H,8H-pyrido[3,4-d]pyrimidine-7-carbonyl}-6-methyl-N-(1-methylcyclopropyl)furo[2,3-d]pyrimidin-4-amine]	10 to 100 nM	–
Cc1oc2ncnc(NC3(C)CC3)c2c1C(=O)N1CCc2c(ncnc2N2CCOCC2)C1 [Example 787, 6-Methyl-N-(1-methylcyclopropyl)-5-[4-(morpholin-4-yl)-5H,6H,7H,8H-pyrido[3,4-d]pyrimidine-7-carbonyl]furo[2,3-d]pyrimidin-4-amine]	10 to 100 nM	–
Cc1oc2ncnc(NC3(C)CC3)c2c1C(=O)N1CCc2c(ncnc2N2CC(F)C2)C1 [Example 788, 5-[4-(3-Fluoroazetidin-1-yl)-5H,6H,7H,8H-pyrido[3,4-d]pyrimidine-7-carbonyl]-6-methyl-N-(1-methylcyclopropyl)furo[2,3-d]pyrimidin-4-amine]	10 to 100 nM	–
Cc1oc2ncnc(NC3(C)CC3)c2c1C(=O)N1CCc2c(nc(Cl)nc2NC(C)C)C1 [Example 789, 5-{2-Chloro-4-[(propan-2-yl)amino]-5H,6H,7H,8H-pyrido[3,4-d]pyrimidine-7-carbonyl}-6-methyl-N-(1-methylcyclopropyl)furo[2,3-d]pyrimidin-4-amine]	–	>8
Cc1oc2ncnc(NC3(C)CC3)c2c1C(=O)N1CCc2c(ncnc2N(C)C2CC2)C1 [Example 790, 5-{4-[Cyclopropyl(methyl)amino]-5H,6H,7H,8H-pyrido[3,4-d]pyrimidine-7-carbonyl}-6-methyl-N-(1-methylcyclopropyl)furo[2,3-d]pyrimidin-4-amine]	10 to 100 nM	–
Cc1oc2ncnc(NC3(C)CC3)c2c1C(=O)N1CCc2c(ncnc2N(C)C)C1 [Example 791, 5-[4-(Dimethylamino)-5H,6H,7H,8H-pyrido[3,4-d]pyrimidine-7-carbonyl]-6-methyl-N-(1-methylcyclopropyl)furo[2,3-d]pyrimidin-4-amine]	10 to 100 nM	–
CNc1ncnc2c1CCN(C(=O)c1c(C)oc3ncnc(NC4(C)CC4)c13)C2 [Example 792, 6-Methyl-5-[4-(methylamino)-5H,6H,7H,8H-pyrido[3,4-d]pyrimidine-7-carbonyl]-N-(1-methylcyclopropyl)furo[2,3-d]pyrimidin-4-amine]	10 to 100 nM	–
Cc1oc2ncnc(NC3(C)CC3)c2c1C(=O)N1CCc2c(ncnc2N(C)C2CCOCC2)C1 [Example 793, 6-Methyl-5-{4-[methyl(oxan-4-yl)amino]-5H,6H,7H,8H-pyrido[3,4-d]pyrimidine-7-carbonyl}-N-(1-methylcyclopropyl)furo[2,3-d]pyrimidin-4-amine]	10 to 100 nM	–
Cc1oc2ncnc(NC3(C)CC3)c2c1C(=O)N1CCc2c(ncnc2NC2CCOCC2)C1 [Example 794, 6-Methyl-N-(1-methylcyclopropyl)-5-f{4-[(oxan-4-yl)amino]-5H,6H,7H,8H-pyrido[3,4-d]pyrimidine-7-carbonyl}furo[2,3-d]pyrimidin-4-amine]	10 to 100 nM	–
COCC1(Nc2ncnc3c2CCN(C(=O)c2c(C)oc4ncnc(NC5(C)CC5)c24)C3)CC1 [Example 795, 5-(4-{[1-(Methoxymethyl)cyclopropyl]amino}-5H,6H,7H,8H-pyrido[3,4-d]pyrimidine-7-carbonyl)-6-methyl-N-(1-methylcyclopropyl)furo[2,3-d]pyrimidin-4-amine]	10 to 100 nM	–
